Consider ten compounds from patent EP4473972A1, “COMBINATIONS COMPRISING AN ATR INHIBITOR WITH SYNERGISTIC EFFECT AGAINST GLIOMAS” (Eberhard-Karls-Universität Tübingen, priority 2023, dated 2024).

Structures are written as SMILES.

The test system of assay [1] is LN229, LNZ308, GS-2 and GS-9 cells. Nature of the assay: 4x4 synergy map assay (ZIP synergy score), all four cell lines. In kind it is cell-based. The note with it: combined with AZD6738 (ATRi); across all four cell lines. The procedure:
(§1) The inventors seeded 5,000 or 10,000 cells, respectively, on day one, treated the next day in serum-free medium and incubated for up to 72 h. Subsequently, they measured cell viability using CellTiterBlue reagent (Promega, Madison, WI, US) according to manufacturer's instructions with a GloMax (Promega, Madison, Wl, US). The inventors normalized measurements to untreated cells.
The inventors leveraged an acute cytotoxicity assay workflow to evaluate potential interaction partners for AZD6738 which were derived from transcriptomic, proteomic and genome-wide CRISPR/Cas9 genetic dependency analyses. In a 1×1/IC50×IC50 set-up, they treated LN229 and LNZ308 cells in serum free medium for 72 h. The inventors used the original Bliss Independence Criterion to evaluate synergism potential. For this, a predicted value for additivity, derived from the product of the two monotherapy settings, was compared to the actual measurement of the combined treatment of the two drugs. […] The inventors used the R package synergyfinder with zero interaction potential (ZIP) synergy scores calculated from 4x4 concentration matrices for each tested combination and the average across the plate; see He et al. (2018); Methods for High-throughput Drug Combination Screening and Synergy Scoring. […]

In assay [2] the test system is LN229 and LNZ308 cells. Briefly: 1x1 (IC50xIC50) pre-selection screen, acute cytotoxicity assay, Bliss Independence Criterion. In kind it is cell-based, human. The note with it: combined with AZD6738, 1x1 (IC50xIC50), 72 h, serum free medium. The procedure:
as §1
The inventors leveraged an acute cytotoxicity assay workflow to evaluate potential interaction partners for AZD6738 which were derived from transcriptomic, proteomic and genome-wide CRISPR/Cas9 genetic dependency analyses. In a 1×1/IC50×IC50 set-up, they treated LN229 and LNZ308 cells in serum free medium for 72 h. The inventors used the original Bliss Independence Criterion to evaluate synergism potential. For this, a predicted value for additivity, derived from the product of the two monotherapy settings, was compared to the actual measurement of the combined treatment of the two drugs. […] BMC Systems Biology 4: 50. Subsequently, the inventors subjected LN229, LNZ308, GS-2 and GS-9 cells to 4x4 synergy map assays again in an acute cytotoxicity assay workflow. The inventors used the R package synergyfinder with zero interaction potential (ZIP) synergy scores calculated from 4x4 concentration matrices for each tested combination and the average across the plate; see He et al. (2018); Methods for High-throughput Drug Combination Screening and Synergy Scoring. In Cancer Systems Biology: Methods and Protocols, von Stechow (ed) pp 351-398. New York, NY: Springer New York.

For assay [3], the system named is primary cultures TUE-PC1-6. Briefly: Combination treatment in primary glioma cultures (Bliss independence Criterion). Conditions: plus AZD6738. In kind it is cell-based.
Source text: Primary tumor tissue was obtained from fresh residual material upon resection at the Department of Neurosurgery, University Hospital Tübingen. The inventors cut the tissue in small pieces, washed it using Hanks Balanced Salt Solution (HBSS) (Gibco, Carlsbad, CA, US) and digested it by collagenase and dispase (Roche, Basel, CH). To remove any remaining erythrocytes, they used red blood cell lysis buffer (Sigma Aldrich, St. Louis, MO, US). The inventors then cultured the cells as GS cells in Neurobasal®-A medium. They first evaluated AZD6738 sensitivity of each primary culture and selected two concentrations. […] To evaluate combination treatment analyses, the inventors leveraged the Bliss independence Criterion.
as §1

The test system of assay [4] is human and murine cell lines. Nature of the assay: Anti-glioma activity in vitro (Figure 1 b). In kind it is cell-based. As to the method:
The inventors seeded 5,000 or 10,000 cells, respectively, on day one, treated the next day in serum-free medium and incubated for up to 72 h. Subsequently, they measured cell viability using CellTiterBlue reagent (Promega, Madison, WI, US) according to manufacturer's instructions with a GloMax (Promega, Madison, Wl, US). The inventors normalized measurements to untreated cells. Cells were seeded the day before treatment. The inventors treated the cells in the indicated concentrations in serum-free medium for 24 h after which they changed the medium back to medium containing FCS, followed by a 7 to 21 day incubation time. The inventors used crystal violet (0.5% w/v) to stain colonies and analyzed the area coverage using the ImageJ software Plugln ColonyArea. Measurements were normalized to respective vehicle control wells.

Assay [5] relates to LNZ308. Briefly: 4x4 synergy map assay (ZIP synergy score). In kind it is cell-based, human. Conditions: combined with AZD6738 (ATRi). The procedure: as §1
(§2) The inventors leveraged an acute cytotoxicity assay workflow to evaluate potential interaction partners for AZD6738 which were derived from transcriptomic, proteomic and genome-wide CRISPR/Cas9 genetic dependency analyses. […] The inventors used the original Bliss Independence Criterion to evaluate synergism potential. For this, a predicted value for additivity, derived from the product of the two monotherapy settings, was compared to the actual measurement of the combined treatment of the two drugs. […] BMC Systems Biology 4: 50. Subsequently, the inventors subjected LN229, LNZ308, GS-2 and GS-9 cells to 4x4 synergy map assays again in an acute cytotoxicity assay workflow. […] New York, NY: Springer New York.

The test system of assay [6] is LN229 cells. Briefly: 4x4 synergy map assay (ZIP synergy score). In kind it is cell-based, human. The note with it: combined with AZD6738 (ATRi). The procedure:
as §1, §2

Assay [7] deals with GS-9. Briefly: 4x4 synergy map assay (ZIP synergy score). In kind it is cell-based. Conditions: combined with AZD6738 (ATRi). The procedure:
as §1, §2

Assay [8] relates to GS-2 cells. Nature of the assay: 4x4 synergy map assay (ZIP synergy score). In kind it is cell-based. Conditions: combined with AZD6738 (ATRi). The procedure: as §1, §2
For assay [9], the system named is LN229-GFP cells. Nature of the assay: Zebrafish embryo xenotransplant, tumor area. In kind it is in vivo, wildtype zebrafish embryos. The note with it: monotherapy, 48 h of treatment; not significant as compared to the DMSO control. As to the method: The inventors used zebrafish wildtype (wt) TE embryos younger than 5 days post-fertilization (dpf). […] Labelled cells were suspended in PBS at 2*10^5 cells/µL and approx. 1 nL cell suspension was injected into the midbrain region of 24 hpf embryos. The inventors incubated the embryos at 28°C for 1 h and afterwards divided them into treatment groups. Only successfully transplanted embryos were used for further experiments. Then, the inventors applied the treatments as indicated in the respective figures and incubated that for 48 h at 35°C. For evaluation of tumor size, they imaged embryos on a Nikon Stereomicroscope (SMZ18) with the NIS Element software. The inventors assessed the tumor surface areas using Imaris (version 9.2.0).

On to `NC(=O)NO` [hydroxyurea, hydroxycarbamide], for which, in assay [1], the “ZIP synergy score (synergism signature)” value is given as “synergism signature”. For the same compound, the Bliss synergy scores result in [2] is given as “top scoring hits”. Also, the “combination efficacy (Bliss Independence Criterion)” value was “not” in assay [3] (TUE-PC1, TUE-PC4, TUE-PC5); “synergistic readout” in [3] (TUE-PC2, TUE-PC3 and TUE-PC6). In the case of `COc1ccc2c(c1)[nH]c1c(C)nccc12` [harmine], the Bliss synergy scores entry in [2] is given as “top scoring hits”. As to `CNCc1ccc(-c2cc(-c3nc(-c4ccc(S(=O)(=O)C(C)C)cc4)cnc3N)on2)cc1` [Berzosertib, berzosertib], the “anti-glioma activity in vitro” value in [4] is reported as “significant anti-glioma activity”. With `CO[C@H]1C[C@@H]2CC[C@@H](C)[C@@](O)(O2)C(=O)C(=O)N2CCCC[C@H]2C(=O)O[C@H]([C@H](C)C[C@@H]2CC[C@@H](OCCO)[C@H](OC)C2)CC(=O)[C@H](C)/C=C(\C)[C@@H](O)[C@@H](OC)C(=O)[C@H](C)C[C@H](C)/C=C/C=C/C=C/1C` [everolimus], the Bliss synergy scores result in assay [2] was “top candidates”. On to `O=C(c1cc(Cc2n[nH]c(=O)c3ccccc23)ccc1F)N1CCN(C(=O)C2CC2)CC1` [olaparib, Olaparib], for which the “ZIP synergy score (interaction with ATRi)” value in [5] is on record as “do not”; in assay [6] it was “synergistic interaction”; in [7] it was “do not”; in assay [8], “synergistic interaction”. In [2], the Bliss synergy scores entry is “top scoring hits”. Regarding `O=c1sn(-c2cccc3ccccc23)c(=O)n1Cc1ccccc1` [tideglusib, Tideglusib], the Bliss synergy scores result in assay [2] is on record as “top scoring hits”. On the same count and under the same terms, to `COc1cc([C@@H]2c3cc4c(cc3[C@@H](O[C@@H]3O[C@@H]5CO[C@@H](C)O[C@H]5[C@H](O)[C@H]3O)[C@H]3COC(=O)[C@H]23)OCO4)cc(OC)c1O` [etoposide, Etoposide] belongs “top scoring hits”. Turning to `N.N.[Cl][Pt][Cl]` [cisplatin, cis-diammine dichloridoplatin], the “ZIP synergy score (synergism signature)” value in assay [1] is “synergism signature”. For the same compound, in assay [3] (all six primary cultures), the “combination efficacy (Bliss Independence Criterion)” value is “synergistic read-outs”. The tumor area entry in assay [9] is on record as “modest decrease”.

Take `O=C(CCCCCCC(=O)Nc1ccccc1)NO` [vorinostat, suberoylanilide hydroxamic acid]: the Bliss synergy scores entry in assay [2] is “top scoring hits”.

Regarding `COc1cccc2c1C(=O)c1c(O)c3c(c(O)c1C2=O)C[C@@](O)(C(=O)CO)C[C@@H]3O[C@H]1C[C@H](N)[C@H](O)[C@H](C)O1` [doxorubicin], the Bliss synergy scores entry in assay [2] is listed as “top scoring hits”.
